Measurements reported in US7326689B2, “Pseudomycins useful against plant diseases” (Eli Lilly and Company, priority 2000, dated 2008).

How the values were obtained:
Experiment in all cases: Antifungal growth assay in potato dextrose broth, 24-well
Assay type in all cases: cell-based
Set-up in all cases: key: NI, no inhibition; p (partial), at least 50% inhibited
[1] = test system: Fusarium culmorum
Method: (§1) Fungi to be tested were propagated on potato dextrose agar (PDA) plates at room temperature. Stock solutions of pseudomycins and depsipeptide were suspended in dimethylsulfoxide (DMSO) (Sigma) at 5 mg/ml and stored at −20C. Serial dilutions of compounds were done the day of the experiment. All serial dilutions were made in DMSO. […] These are noted in the raw data section.
(§2) Assays were performed in 24-well cell culture clusters (Costar 3524), with 990 ul potato dextrose broth (PDB, Difco) and 10 ul of the compound to be tested in each well. Initial concentrations tested were 50-1.56 ug/ml (final concentration of pseudomycin). Actual concentrations of pseudomycins tested were 50, 25, 12.5, 6.25, 3.12 and 1.56 ug/ml. Each well was inoculated with the appropriate fungus. Unless noted, the fungal inoculum consisted of an ˜4 mm^2 piece of PDA with fungal mycelium. The exceptions were as follows. Ustilago maydis: this fungus grows much like a yeast on PDA, and cells were scraped from the PDA stock plate, resuspended in PDB and 10 ul inoculum added to each well. Monilinia sp.: this fungal mycelium grows as a very loose sheet on top of PDA and would not adhere to agar blocks. Fungal mycelium was ground with a metal rod in 500 ul PDB and 10 ul inoculum was added to each well. Mycosphaeella fijiensis, Septoria passerinii, Septoria triticii: these fungi all grow very slowly and the results were difficult to score if a small piece of agar with fungal mycelium on it was used as an inoculum. For these fungi, the mycelium was ground with a metal rod in 500 ul PDB and 10 ul inoculum was added to each well.
(§3) Wells were scored for fungal growth at two days and five days. Some slow growing fungi were scored at later days for growth because assessment was not possible at two or five days. Growth was scored by comparison to a control consisting of fungus inoculated into 990 ul potato dextrose broth and 10 ul of DMSO (Dimethylsulfoxide). An additional control consisting of fungal inoculum in PDB only was performed to ensure that the DMSO was not inhibitory to fungal growth.
(§4) For assays that were repeated, new stock solutions were made from a second shipment of pseudomycins. Note that pseudomycin B′ and depsipeptide stock solutions were remade from first shipment materials because these were not included in the second shipment. […] Actual concentrations of pseudomycins tested were 2, 1, 0.5, 0.25, 0.125 and 0.0625 ug/ml. A-PO4 and A-FB=pseudomycin A phosphate salt and free base respectively.
(§5) Table 2: Two day results—concentration indicated is lowest level of compound (ug /ml) that results is no growth. NI, no inhibition; p (partial), at least 50% inhibited; -, not determined. If number of assays was greater than one, number of assays performed on the fungus is noted in parentheses. For several slow-growing fungi, days elapsed before observation (if different than two) are noted.
(§6) Table 3: Five day results—concentration indicated is lowest level of compound (ug /ml) that results in no growth. NI, no inhibition; p (partial), at least 50% inhibited; -, not performed on the fungus is noted in parentheses. For several slow-growing fungi, days elapsed before observation (if different than five) are noted.

[2] = test system: Fusarium avenaceum
Method: as §1, §2, §3, §4, §5, §6

[3] = test system: Alternaria helianthi; conditions: 2x assays
Method: as §1, §2, §3, §4, §5, §6

[4] = test system: Drechslera tritici-repentis
Method: as §1, §2, §3, §4, §5, §6

[5] = test system: Sclerotinia sclerotiorum; conditions: 2x assays
Method: as §1, §2, §3, §4, §5, §6

[6] = test system: Diplodia natalensis
Method: as §1, §2, §3, §4, §5, §6

[7] = test system: Phytophthora cactorum
Method: as §1, §2, §3, §4, §5, §6

[8] = test system: Stagonospora nodorum
Method: as §1, §2, §3, §4, §5, §6

[9] = test system: Phoma chrysamthecola; conditions: five day results
Method: as §1, §2, §3, §4, §5, §6

[10] = test system: Fusarium oxysporum cubense
Method: as §1, §2, §3, §4, §5, §6

[11] = test system: Aphanomyces sp.; conditions: 2x assays
Method: as §1, §2, §3, §4, §5, §6

[12] = test system: Phytophthora cinnemani
Method: as §1, §2, §3, §4, §5, §6

[13] = test system: Cochliobolus carbonum
Method: as §1, §2, §3, §4, §5, §6

[14] = test system: Phytophthora parasitica
Method: as §1, §2, §3, §4, §5, §6

[15] = test system: Tapesia acuformis; conditions: 2x assays
Method: as §1, §2, §3, §4, §5, §6

[16] = test system: Botrytis alli; conditions: 2x assays
Method: as §1, §2, §3, §4, §5, §6

[17] = test system: Verticillium dahliae; conditions: 2x assays
Method: as §1, §2, §3, §4, §5, §6

[18] = test system: Phytophthora ultimum
Method: as §1, §2, §3, §4, §5, §6

[19] = test system: Fusarium solani
Method: as §1, §2, §3, §4, §5, §6

Substance: Pseudomycin C
- lowest level of compound that results in no growth ([1]; five day results): NI
- lowest level of compound that results in no growth ([1]; two day results): NI
- lowest level of compound that results in no growth ([2]; five day results): NI
- lowest level of compound that results in no growth ([2]; two day results): NI
- lowest level of compound that results in no growth ([3]; five day results): NI
- lowest level of compound that results in no growth ([3]; two day results): p at 50
- lowest level of compound that results in no growth ([4]; five day results): NI
- lowest level of compound that results in no growth ([4]; two day results, 2x assays): 50 µg/mL
- lowest level of compound that results in no growth ([5]; five day results): NI
- lowest level of compound that results in no growth ([5]; two day results): NI
- lowest level of compound that results in no growth ([6]; five day results): NI
- lowest level of compound that results in no growth ([6]; two day results): NI
- lowest level of compound that results in no growth ([7]; five day results): NI
- lowest level of compound that results in no growth ([7]; two day results): NI
- lowest level of compound that results in no growth ([8]; five day results): NI
- lowest level of compound that results in no growth ([8]; two day results): NI
- lowest level of compound that results in no growth [9]: NI
- lowest level of compound that results in no growth ([10]; five day results): NI
- lowest level of compound that results in no growth ([10]; two day results): NI
- lowest level of compound that results in no growth ([11]; five day results): 50 µg/mL
- lowest level of compound that results in no growth ([11]; two day results): 25 µg/mL
- lowest level of compound that results in no growth ([12]; five day results): NI
- lowest level of compound that results in no growth ([12]; two day results): NI
- lowest level of compound that results in no growth ([13]; five day results): NI
- lowest level of compound that results in no growth ([13]; two day results): NI
- lowest level of compound that results in no growth ([14]; five day results): NI
- lowest level of compound that results in no growth ([14]; two day results): NI
- lowest level of compound that results in no growth ([15]; five day results): NI
- lowest level of compound that results in no growth ([15]; two day results): NI
- lowest level of compound that results in no growth ([16]; five day results): NI
- lowest level of compound that results in no growth ([16]; two day results): NI
- lowest level of compound that results in no growth ([17]; five day results): p at 50
- lowest level of compound that results in no growth ([17]; two day results): 25 µg/mL
- lowest level of compound that results in no growth ([18]; five day results): NI
- lowest level of compound that results in no growth ([18]; two day results): NI
- lowest level of compound that results in no growth ([19]; five day results): NI
- lowest level of compound that results in no growth ([19]; two day results): p at 50

Substance: pseudomycin A-PO4
- lowest level of compound that results in no growth ([1]; five day results): NI
- lowest level of compound that results in no growth ([1]; two day results): NI
- lowest level of compound that results in no growth ([2]; five day results): NI
- lowest level of compound that results in no growth ([2]; two day results): NI
- lowest level of compound that results in no growth ([3]; five day results): 25 µg/mL
- lowest level of compound that results in no growth ([3]; two day results): 25 µg/mL
- lowest level of compound that results in no growth ([4]; five day results): p at 50
- lowest level of compound that results in no growth ([4]; two day results, 2x assays): 50 µg/mL
- lowest level of compound that results in no growth ([5]; five day results): NI
- lowest level of compound that results in no growth ([5]; two day results): NI
- lowest level of compound that results in no growth ([6]; five day results): NI
- lowest level of compound that results in no growth ([6]; two day results): NI
- lowest level of compound that results in no growth ([7]; five day results): NI
- lowest level of compound that results in no growth ([7]; two day results): NI
- lowest level of compound that results in no growth ([8]; five day results): NI
- lowest level of compound that results in no growth ([8]; two day results): NI
- lowest level of compound that results in no growth [9]: NI
- lowest level of compound that results in no growth ([10]; five day results): NI
- lowest level of compound that results in no growth ([10]; two day results): NI
- lowest level of compound that results in no growth ([11]; five day results): p at 50
- lowest level of compound that results in no growth ([11]; two day results): 50 µg/mL
- lowest level of compound that results in no growth ([12]; five day results): NI
- lowest level of compound that results in no growth ([12]; two day results): NI
- lowest level of compound that results in no growth ([13]; five day results): NI
- lowest level of compound that results in no growth ([13]; two day results): NI
- lowest level of compound that results in no growth ([14]; five day results): NI
- lowest level of compound that results in no growth ([14]; two day results): NI
- lowest level of compound that results in no growth ([15]; five day results): 50 µg/mL
- lowest level of compound that results in no growth ([15]; two day results): 50 µg/mL
- lowest level of compound that results in no growth ([16]; five day results): p at 50
- lowest level of compound that results in no growth ([16]; two day results): 50 µg/mL
- lowest level of compound that results in no growth ([17]; five day results): p at 50
- lowest level of compound that results in no growth ([17]; two day results): p at 50
- lowest level of compound that results in no growth ([18]; five day results): NI
- lowest level of compound that results in no growth ([18]; two day results): NI
- lowest level of compound that results in no growth ([19]; five day results): NI
- lowest level of compound that results in no growth ([19]; two day results): NI

Substance: Pseudomycin B′
- lowest level of compound that results in no growth ([1]; five day results): NI
- lowest level of compound that results in no growth ([1]; two day results): NI
- lowest level of compound that results in no growth ([2]; five day results): NI
- lowest level of compound that results in no growth ([2]; two day results): NI
- lowest level of compound that results in no growth ([3]; five day results): 25 µg/mL
- lowest level of compound that results in no growth ([3]; two day results): 25 µg/mL
- lowest level of compound that results in no growth ([4]; five day results): p at 50
- lowest level of compound that results in no growth ([4]; two day results, 2x assays): 50 µg/mL
- lowest level of compound that results in no growth ([5]; five day results): NI
- lowest level of compound that results in no growth ([5]; two day results): NI
- lowest level of compound that results in no growth ([6]; five day results): NI
- lowest level of compound that results in no growth ([6]; two day results): NI
- lowest level of compound that results in no growth ([7]; five day results): NI
- lowest level of compound that results in no growth ([7]; two day results): NI
- lowest level of compound that results in no growth ([8]; five day results): NI
- lowest level of compound that results in no growth ([8]; two day results): NI
- lowest level of compound that results in no growth [9]: p at 50
- lowest level of compound that results in no growth ([10]; five day results): NI
- lowest level of compound that results in no growth ([10]; two day results): NI
- lowest level of compound that results in no growth ([11]; five day results): NI
- lowest level of compound that results in no growth ([11]; two day results): 25 µg/mL
- lowest level of compound that results in no growth ([12]; five day results): NI
- lowest level of compound that results in no growth ([12]; two day results): NI
- lowest level of compound that results in no growth ([13]; five day results): NI
- lowest level of compound that results in no growth ([13]; two day results): NI
- lowest level of compound that results in no growth ([14]; five day results): NI
- lowest level of compound that results in no growth ([14]; two day results): NI
- lowest level of compound that results in no growth ([15]; five day results): NI
- lowest level of compound that results in no growth ([15]; two day results): NI
- lowest level of compound that results in no growth ([16]; five day results): NI
- lowest level of compound that results in no growth ([16]; two day results): NI
- lowest level of compound that results in no growth ([17]; five day results): NI
- lowest level of compound that results in no growth ([17]; two day results): NI
- lowest level of compound that results in no growth ([18]; five day results): NI
- lowest level of compound that results in no growth ([18]; two day results): NI
- lowest level of compound that results in no growth ([19]; five day results): NI
- lowest level of compound that results in no growth ([19]; two day results): NI
